Results as given in PMC11470957, “Principles of paralog-specific targeted protein degradation engaging the C-degron E3 KLHDC2” (Nature Communications, 2024).
“And” between values parts separate entries of the source, which are not always exact repeats. Equal entries are not always repeated. Where two headings read alike, the source gives them in different places.

Tests used:
[1] = target: BRD3 (Homo sapiens, UniProt Q15059); assay: Western blot of BRD3 levels after cellular dosing
[2] = target: BRD4 (Homo sapiens, UniProt O60885); assay: Western blot of BRD4 levels after cellular dosing

Sequence of BRD3 (Q15059 whole entry): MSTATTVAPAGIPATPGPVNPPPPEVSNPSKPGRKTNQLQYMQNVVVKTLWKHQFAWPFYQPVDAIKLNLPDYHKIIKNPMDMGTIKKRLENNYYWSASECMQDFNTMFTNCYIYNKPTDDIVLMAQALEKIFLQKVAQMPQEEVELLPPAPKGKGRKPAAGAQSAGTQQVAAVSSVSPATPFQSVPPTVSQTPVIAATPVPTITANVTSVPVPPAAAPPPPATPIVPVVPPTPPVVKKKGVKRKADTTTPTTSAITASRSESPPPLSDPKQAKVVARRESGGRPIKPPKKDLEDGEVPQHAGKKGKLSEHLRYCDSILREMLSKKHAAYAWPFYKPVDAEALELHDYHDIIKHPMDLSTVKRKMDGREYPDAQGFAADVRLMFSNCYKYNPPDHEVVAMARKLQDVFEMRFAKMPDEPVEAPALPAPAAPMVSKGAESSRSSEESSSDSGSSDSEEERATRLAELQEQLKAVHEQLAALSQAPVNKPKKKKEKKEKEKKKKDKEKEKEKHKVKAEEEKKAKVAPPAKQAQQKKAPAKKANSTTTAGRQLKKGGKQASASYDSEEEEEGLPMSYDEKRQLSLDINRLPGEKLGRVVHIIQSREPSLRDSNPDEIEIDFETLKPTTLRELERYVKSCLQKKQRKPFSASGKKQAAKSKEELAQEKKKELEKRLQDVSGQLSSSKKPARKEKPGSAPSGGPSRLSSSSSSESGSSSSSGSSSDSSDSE

Compound: COC(=O)CNC(=O)Cc1csc(-c2ccc3cccc(OCCN4CCN(C(=O)C[C@@H]5N=C(c6ccc(Cl)cc6)c6c(sc(C)c6C)-n6c(C)nnc65)CC4)c3c2)n1 [SJ46420]
- DC50 ([1]; read-out: BRD3 DC50, PC3, 24 h dose): 487 nM
- Dmax ([1]; read-out: BRD3 Dmax, PC3, 24 h dose): 99.9%
- remaining activity at 5 µM ([1]; read-out: BRD3 level, Western blot quantification (DMSO = 100), Fig 6b, KO/Rescue): 105%
- remaining activity at 1 µM ([1]; read-out: BRD3 level, Western blot quantification (DMSO = 100), Fig 6c, 1 uM): 43.9%
- remaining activity at 1 µM ([1]; read-out: BRD3 level, Western blot quantification (DMSO = 100), Fig 6d, 1 uM): 19%
- remaining activity at 1 µM ([1]; read-out: BRD3 level, Western blot quantification (DMSO = 100), Fig 6d, 1uM together with 1uM MLN4924): 120%
- remaining activity at 0.625 µM ([1]; read-out: BRD3 level, Western blot quantification (DMSO = 100), Fig S6e, PC3 KO/rescue Dose Response, 0.625 uM): 47.6%
- remaining activity at 1.25 µM ([1]; read-out: BRD3 level, Western blot quantification (DMSO = 100), Fig S6e, PC3 KO/rescue Dose Response, 1.25 uM): 11.4%
- remaining activity at 2.5 µM ([1]; read-out: BRD3 level, Western blot quantification (DMSO = 100), Fig S6e, PC3 KO/rescue Dose Response, 2.5 uM): 0.66%
- remaining activity at 5 µM ([1]; read-out: BRD3 level, Western blot quantification (DMSO = 100), Fig S6e, PC3 KO/rescue Dose Response): 0.34%
- remaining activity at 10 µM ([1]; read-out: BRD3 level, Western blot quantification (DMSO = 100), Fig S6e, PC3 KO/rescue Dose Response, 10uM): 0.161%
- BRD degradation activity in U2OS cells ([1]; wild-type U2OS, 24 h dose, Fig 6b): efficiently and selectively targeted BRD3 for degradation
- BRD4 level relative to DMSO (100%) ([2]; 22Rv1, 0.16µM, 24 h, Fig S6f): 105 +/- 5.8%
- BRD4 level relative to DMSO (100%) ([2]; 22Rv1, 0.63µM, 24 h, Fig S6f): 101 +/- 7.2%
- BRD4 level relative to DMSO (100%) ([2]; 22Rv1, 1.3µM, 24 h, Fig S6f): 89 +/- 2.9%
- BRD4 level relative to DMSO (100%) ([2]; 22Rv1, 2.5µM, 24 h, Fig S6f): 88 +/- 11%
- BRD4 level relative to DMSO (100%) ([2]; 22Rv1, 5µM, 24 h, Fig S6f): 83 +/- 10%
- BRD4 level relative to DMSO (100%) ([2]; 22Rv1, 10µM, 24 h, Fig S6f): 68 +/- 15%
- Dmax ([2]; 22Rv1, read-out: BRD4 Dmax, 22Rv1, 24 h dose): 30%
- BRD4 level relative to DMSO (100%) ([2]; 293T, 2.5µM, 24 h, Fig S6a): 98 +/- 5.3%
- BRD4 level relative to DMSO (100%) ([2]; 293T, 5µM, 24 h, Fig S6a): 79 +/- 6.6%
- BRD4 level relative to DMSO (100%) ([2]; AU565, 0.2µM, 8 h, Fig S6c): 82 +/- 4.7%
- BRD4 level relative to DMSO (100%) ([2]; AU565, 1µM, 8 h, Fig S6c): 53 +/- 5.1%
- BRD4 level relative to DMSO (100%) ([2]; AU565, 5µM, 8 h, Fig S6c): 4.1 +/- 1.3%
- BRD4 level, Western blot quantification (DMSO = 100) ([2]; Fig 6b, KO/Rescue, 5 uM): 91.0765 and 107.689
- BRD4 level, Western blot quantification (DMSO = 100) ([2]; Fig 6b, U2OS, 5 uM): 77.4849 and 71.6749
- BRD4 level, Western blot quantification (DMSO = 100) ([2]; Fig 6c, 1 uM): 92.7102 and 86.955
- BRD4 level, Western blot quantification (DMSO = 100) ([2]; Fig 6d, 1 uM): 67.4942 and 82.9736
- BRD4 level, Western blot quantification (DMSO = 100) ([2]; Fig 6d, 1uM together with 1uM MLN4924): 118.408 and 100.267
- BRD4 level, Western blot quantification (DMSO = 100) ([2]; Fig S6a, 293T cells, 2.5 uM): 94.5347 and 102.135
- BRD4 level, Western blot quantification (DMSO = 100) ([2]; Fig S6a, 293T cells, 5 uM): 74.6014 and 84.7353
- BRD4 level, Western blot quantification (DMSO = 100) ([2]; Fig S6b, MDA-MB468 Cells, 2 uM): 86.0887 and 95.6433
- BRD4 level, Western blot quantification (DMSO = 100) ([2]; Fig S6b, MDA-MB468 Cells, 5 uM): 75.9577 and 82.1258
- BRD4 level, Western blot quantification (DMSO = 100) ([2]; Fig S6b, MDA-MB468 Cells, 10 uM): 65.8655 and 71.3135
- BRD4 level, Western blot quantification (DMSO = 100) ([2]; Fig S6c, AU565 Cells, 0.2 uM): 78.2951 and 85.4236
- BRD4 level, Western blot quantification (DMSO = 100) ([2]; Fig S6c, AU565 Cells, 1 uM): 49.0527 and 56.2352
- BRD4 level, Western blot quantification (DMSO = 100) ([2]; Fig S6c, AU565 Cells, 5 uM): 3.1923 and 5.662
- BRD4 level, Western blot quantification (DMSO = 100) ([2]; Fig S6e, PC3 KO/rescue Dose Response, 0.156 uM): 98.9143 and 85.6296
- BRD4 level, Western blot quantification (DMSO = 100) ([2]; Fig S6e, PC3 KO/rescue Dose Response, 0.313 uM): 95.5722 and 70.9157
- BRD4 level, Western blot quantification (DMSO = 100) ([2]; Fig S6e, PC3 KO/rescue Dose Response, 0.625 uM): 77.9263 and 60.6542
- BRD4 level, Western blot quantification (DMSO = 100) ([2]; Fig S6e, PC3 KO/rescue Dose Response, 1.25 uM): 36.0358 and 57.3958
- BRD4 level, Western blot quantification (DMSO = 100) ([2]; Fig S6e, PC3 KO/rescue Dose Response, 2.5 uM): 28.2357 and 25.3138
- BRD4 level, Western blot quantification (DMSO = 100) ([2]; Fig S6e, PC3 KO/rescue Dose Response, 5 uM): 3.953 and 2.975
- BRD4 level, Western blot quantification (DMSO = 100) ([2]; Fig S6e, PC3 KO/rescue Dose Response, 10uM): 0.3603 and 0.6573
- BRD4 level, Western blot quantification (DMSO = 100) ([2]; Fig S6f, 22RV1 KO/rescue Dose Response, 0.156 uM): 101.401 and 109.713
- BRD4 level, Western blot quantification (DMSO = 100) ([2]; Fig S6f, 22RV1 KO/rescue Dose Response, 0.313 uM): 109.261 and 111.474
- BRD4 level, Western blot quantification (DMSO = 100) ([2]; Fig S6f, 22RV1 KO/rescue Dose Response, 0.625 uM): 106.365 and 96.1732
- BRD4 level, Western blot quantification (DMSO = 100) ([2]; Fig S6f, 22RV1 KO/rescue Dose Response, 1.25 uM): 91.1283 and 87.0112
- BRD4 level, Western blot quantification (DMSO = 100) ([2]; Fig S6f, 22RV1 KO/rescue Dose Response, 2.5 uM): 95.8637 and 80.8873
- BRD4 level, Western blot quantification (DMSO = 100) ([2]; Fig S6f, 22RV1 KO/rescue Dose Response, 5 uM): 91.3116 and 76.191
- BRD4 level, Western blot quantification (DMSO = 100) ([2]; Fig S6f, 22RV1 KO/rescue Dose Response, 10uM): 79.6577 and 57.9117
- BRD4 level, Western blot quantification (DMSO = 100) ([2]; Fig S6g, SKBR3 Time course, 1 uM, 2hr): 104.311 and 100.652
- BRD4 level, Western blot quantification (DMSO = 100) ([2]; Fig S6g, SKBR3 Time course, 1 uM, 4hr): 75.4286 and 82.2353
- BRD4 level, Western blot quantification (DMSO = 100) ([2]; Fig S6g, SKBR3 Time course, 1 uM, 8hr): 78.3987 and 72.5234
